In patent US20100041089A1, “IMPROVED METHOD FOR DETECTING CHEMICAL […]” (priority 2006, published 2010):

Test system: yeast genes (expressed mRNA)
Assay: DNA chip measurement of expressed mRNA of yeast genes after culture with a toxic chemical substance
Format: cell-based, Saccharomyces cerevisiae S288C
Details: for level of expressed mRNA in the presence of chemical substance / level in the absence of chemical substance: cultured two hours with the chemical substance; for The level of expressed mRNA in the presence of chemical substance/The level of expressed mRNA in the absence of chemical substance: cultured two hours with substance
Procedure, shortened: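 Yeast S288C, YPD 25° C; toxicant at log phase, 2 h, sublethal growth-inhibiting conc.; no-chemical control. Hot SDS/acetate RNA extraction, oligo-dT mRNA, Cy3/Cy5-dUTP RT. Whole-genome chip, 65° C >12 h. Readout: treated/control intensity ratio, ≥2 significant.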

## Cl[C@H]1[C@H](Cl)[C@@H](Cl)[C@@H](Cl)[C@H](Cl)[C@H]1Cl [(7), γ-Hexachlorocyclohexane]
Gene YBR036C, Metabolism protein genes, DNA chip fluorescence ratio
  The level of expressed mRNA in the presence of chemical substance/The level of expressed mRNA in the absence of chemical substance, yeast gene YBR036C: 1.3
Gene YBR298C, Metabolism protein genes, DNA chip fluorescence ratio
  The level of expressed mRNA in the presence of chemical substance/The level of expressed mRNA in the absence of chemical substance, yeast gene YBR298C: 1.7
Gene YDL067C (mitochondria-located protein gene), yeast cultured two hours with chemical substance, DNA chip fluorescence ratio to control
  The level of expressed mRNA in the presence of chemical substance/The level of expressed mRNA in the absence of chemical substance, yeast gene YDL067C: 0.8
Gene YDL078C, Metabolism protein genes, DNA chip fluorescence ratio
  The level of expressed mRNA in the presence of chemical substance/The level of expressed mRNA in the absence of chemical substance, yeast gene YDL078C: 1.7
Gene YDL215C, Metabolism protein genes, DNA chip fluorescence ratio
  The level of expressed mRNA in the presence of chemical substance/The level of expressed mRNA in the absence of chemical substance, yeast gene YDL215C: 1.9
Gene YDR079W (mitochondria-located protein gene), yeast cultured two hours with chemical substance, DNA chip fluorescence ratio to control
  The level of expressed mRNA in the presence of chemical substance/The level of expressed mRNA in the absence of chemical substance, yeast gene YDR079W: 1.3
Gene YDR297W, Metabolism protein genes, DNA chip fluorescence ratio
  The level of expressed mRNA in the presence of chemical substance/The level of expressed mRNA in the absence of chemical substance, yeast gene YDR297W: 0.6
Gene YDR387C, Metabolism protein genes, DNA chip fluorescence ratio
  The level of expressed mRNA in the presence of chemical substance/The level of expressed mRNA in the absence of chemical substance, yeast gene YDR387C: 1.3
Gene YGL035C, Metabolism protein genes, DNA chip fluorescence ratio
  The level of expressed mRNA in the presence of chemical substance/The level of expressed mRNA in the absence of chemical substance, yeast gene YGL035C: 1.2
Gene YGR062C (mitochondria-located protein gene), yeast cultured two hours with chemical substance, DNA chip fluorescence ratio to control
  The level of expressed mRNA in the presence of chemical substance/The level of expressed mRNA in the absence of chemical substance, yeast gene YGR062C: 1.3
Gene YGR287C, Metabolism protein genes, DNA chip fluorescence ratio
  The level of expressed mRNA in the presence of chemical substance/The level of expressed mRNA in the absence of chemical substance, yeast gene YGR287C: 2.2
Gene YJL070C, Metabolism protein genes, DNA chip fluorescence ratio
  The level of expressed mRNA in the presence of chemical substance/The level of expressed mRNA in the absence of chemical substance, yeast gene YJL070C: 1.4
Gene YJL096W (mitochondria-located protein gene), yeast cultured two hours with chemical substance, DNA chip fluorescence ratio to control
  The level of expressed mRNA in the presence of chemical substance/The level of expressed mRNA in the absence of chemical substance, yeast gene YJL096W: 1.7
Gene YJL180C (mitochondria-located protein gene), yeast cultured two hours with chemical substance, DNA chip fluorescence ratio to control
  The level of expressed mRNA in the presence of chemical substance/The level of expressed mRNA in the absence of chemical substance, yeast gene YJL180C: 1.6
Gene YKR009C, Metabolism protein genes, DNA chip fluorescence ratio
  The level of expressed mRNA in the presence of chemical substance/The level of expressed mRNA in the absence of chemical substance, yeast gene YKR009C: 1.0
Gene YLR295C (mitochondria-located protein gene), yeast cultured two hours with chemical substance, DNA chip fluorescence ratio to control
  The level of expressed mRNA in the presence of chemical substance/The level of expressed mRNA in the absence of chemical substance, yeast gene YLR295C: 1.1
Gene YLR351C, Metabolism protein genes, DNA chip fluorescence ratio
  The level of expressed mRNA in the presence of chemical substance/The level of expressed mRNA in the absence of chemical substance, yeast gene YLR351C: 1.4
Gene YLR375W, Metabolism protein genes, DNA chip fluorescence ratio
  The level of expressed mRNA in the presence of chemical substance/The level of expressed mRNA in the absence of chemical substance, yeast gene YLR375W: 0.9
Gene YMR023C (mitochondria-located protein gene), yeast cultured two hours with chemical substance, DNA chip fluorescence ratio to control
  The level of expressed mRNA in the presence of chemical substance/The level of expressed mRNA in the absence of chemical substance, yeast gene YMR023C: 1.9
Gene YMR267W (mitochondria-located protein gene), yeast cultured two hours with chemical substance, DNA chip fluorescence ratio to control
  The level of expressed mRNA in the presence of chemical substance/The level of expressed mRNA in the absence of chemical substance, yeast gene YMR267W: 1.2
Gene YMR267W, Metabolism protein genes, DNA chip fluorescence ratio
  The level of expressed mRNA in the presence of chemical substance/The level of expressed mRNA in the absence of chemical substance, yeast gene YMR267W: 1.2
Gene YMR278W, Metabolism protein genes, DNA chip fluorescence ratio
  The level of expressed mRNA in the presence of chemical substance/The level of expressed mRNA in the absence of chemical substance, yeast gene YMR278W: 1.8
Gene YMR293C, Metabolism protein genes, DNA chip fluorescence ratio
  The level of expressed mRNA in the presence of chemical substance/The level of expressed mRNA in the absence of chemical substance, yeast gene YMR293C: 1.2
Gene YNL073W (mitochondria-located protein gene), yeast cultured two hours with chemical substance, DNA chip fluorescence ratio to control
  The level of expressed mRNA in the presence of chemical substance/The level of expressed mRNA in the absence of chemical substance, yeast gene YNL073W: 1.1
Gene YNR072W, Metabolism protein genes, DNA chip fluorescence ratio
  The level of expressed mRNA in the presence of chemical substance/The level of expressed mRNA in the absence of chemical substance, yeast gene YNR072W: 1.5
Gene YOL096C, Metabolism protein genes, DNA chip fluorescence ratio
  The level of expressed mRNA in the presence of chemical substance/The level of expressed mRNA in the absence of chemical substance, yeast gene YOL096C: 1.7
Gene YOR180C, Metabolism protein genes, DNA chip fluorescence ratio
  The level of expressed mRNA in the presence of chemical substance/The level of expressed mRNA in the absence of chemical substance, yeast gene YOR180C: 0.8
Gene YOR316C (mitochondria-located protein gene), yeast cultured two hours with chemical substance, DNA chip fluorescence ratio to control
  The level of expressed mRNA in the presence of chemical substance/The level of expressed mRNA in the absence of chemical substance, yeast gene YOR316C: 1.4
Gene YOR363C, Metabolism protein genes, DNA chip fluorescence ratio
  The level of expressed mRNA in the presence of chemical substance/The level of expressed mRNA in the absence of chemical substance, yeast gene YOR363C: 0.7
Gene YPL040C (mitochondria-located protein gene), yeast cultured two hours with chemical substance, DNA chip fluorescence ratio to control
  The level of expressed mRNA in the presence of chemical substance/The level of expressed mRNA in the absence of chemical substance, yeast gene YPL040C: 0.8
Gene YPL134C (mitochondria-located protein gene), yeast cultured two hours with chemical substance, DNA chip fluorescence ratio to control
  The level of expressed mRNA in the presence of chemical substance/The level of expressed mRNA in the absence of chemical substance, yeast gene YPL134C: 1.2
Gene YPR184W, Metabolism protein genes, DNA chip fluorescence ratio
  The level of expressed mRNA in the presence of chemical substance/The level of expressed mRNA in the absence of chemical substance, yeast gene YPR184W: 1.3
Yeast gene YAL018C
  level of expressed mRNA in the presence of chemical substance / level in the absence of chemical substance: 1.0
Yeast gene YAL053W
  The level of expressed mRNA in the presence of chemical substance/The level of expressed mRNA in the absence of chemical substance: 0.7
Yeast gene YAR047C
  level of expressed mRNA in the presence of chemical substance / level in the absence of chemical substance: 1.2
Yeast gene YAR064W
  level of expressed mRNA in the presence of chemical substance / level in the absence of chemical substance: 1.1
Yeast gene YBL044W
  level of expressed mRNA in the presence of chemical substance / level in the absence of chemical substance: 1.1
Yeast gene YBL048W
  The level of expressed mRNA in the presence of chemical substance/The level of expressed mRNA in the absence of chemical substance: 1.9
Yeast gene YBL107C
  The level of expressed mRNA in the presence of chemical substance/The level of expressed mRNA in the absence of chemical substance: 2.1
Yeast gene YBR012C
  level of expressed mRNA in the presence of chemical substance / level in the absence of chemical substance: 1.5
Yeast gene YBR066C
  level of expressed mRNA in the presence of chemical substance / level in the absence of chemical substance: 1.3
Yeast gene YBR124W
  level of expressed mRNA in the presence of chemical substance / level in the absence of chemical substance: 1.1
Yeast gene YBR162C
  level of expressed mRNA in the presence of chemical substance / level in the absence of chemical substance: 0.3
Yeast gene YBR287W
  level of expressed mRNA in the presence of chemical substance / level in the absence of chemical substance: 1.1
Yeast gene YCL056C
  level of expressed mRNA in the presence of chemical substance / level in the absence of chemical substance: 1.6
Yeast gene YCR007C
  level of expressed mRNA in the presence of chemical substance / level in the absence of chemical substance: 2.0
Yeast gene YDL046W
  level of expressed mRNA in the presence of chemical substance / level in the absence of chemical substance: 1.2
Yeast gene YDL072C
  The level of expressed mRNA in the presence of chemical substance/The level of expressed mRNA in the absence of chemical substance: 1.8
Yeast gene YDL204W
  The level of expressed mRNA in the presence of chemical substance/The level of expressed mRNA in the absence of chemical substance: 3.2
Yeast gene YDL222C
  The level of expressed mRNA in the presence of chemical substance/The level of expressed mRNA in the absence of chemical substance: 1.0
Yeast gene YDR090C
  level of expressed mRNA in the presence of chemical substance / level in the absence of chemical substance: 1.5
Yeast gene YDR128W
  level of expressed mRNA in the presence of chemical substance / level in the absence of chemical substance: 0.8
